Experimental data: patent US8962674B2 (Tokyo Institute of Technology, priority 2006, dated 2015)

| melting point [°C] | Compound |
| --- | --- |
| 89 to 93 | COCOc1cccc(O)c1/C=C/C(=O)CC(=O)/C=C/c1ccc(OC)c(O)c1 [CU313, (1E,6E)-1-[2-hydroxy-6-(methoxymethoxy)phenyl]-7-(3-hydroxy-4-methoxyphenyl)hepta-1,6-diene-3,5-dione] |
| 149 to 152 | COC(=O)c1ccc(/C=C/C(=O)CC(=O)/C=C/c2ccc(O)c(OC)c2)cc1 [CU316, (1E,6E)-1-(4-hydroxy-3-methoxyphenyl)-7-[4-(methoxycarbonyl)phenyl]hepta-1,6-diene-3,5-dione] |
| 173 to 178 | O=C(/C=C/c1ccc(O)cc1)CC(=O)/C=C/c1cc2ccccc2o1 [CU321, (1E,6E)-1-(benzofuran-2-yl)-7-(4-hydroxyphenyl)hepta-1,6-diene-3,5-dione] |
| 112 to 117 | O=C(/C=C/c1ccc(O)cc1)CC(=O)/C=C/c1cccc2cccnc12 [CU323, (1E,6E)-1-(4-hydroxyphenyl)-7-(quinolin-8-yl)hepta-1,6-diene-3,5-dione] |
| 272 to 275 | O=C(/C=C/c1ccc(O)cc1)CC(=O)/C=C/c1cccc2ncccc12 [CU324, (1E,6E)-1-(4-hydroxyphenyl)-7-(quinolin-5-yl)hepta-1,6-diene-3,5-dione] |
| 229 to 232 | O=C(/C=C/c1ccc(O)cc1)CC(=O)/C=C/c1ccc(-c2ccccn2)cc1 [CU328, (1E,6E)-1-(4-hydroxyphenyl)-7-[4-(pyridin-2-yl)phenyl]hepta-1,6-diene-3,5-dione] |
| 255 to 260 | O=C(/C=C/c1ccc(O)cc1)CC(=O)/C=C/c1ccc(-n2ccnc2)cc1 [CU329, (1E,6E)-1-(4-hydroxyphenyl)-7-[4-(1H-imidazol-1-yl)phenyl]hepta-1,6-diene-3,5-dione] |
| 243 to 249 | O=C(/C=C/c1ccc(O)cc1)CC(=O)/C=C/c1cn(Cc2ccccc2)c2ccccc12 [CU331, (1E,6E)-1-(1-benzyl-1H-indol-3-yl)-7-(4-hydroxyphenyl)hepta-1,6-diene-3,5-dione] |
| 132 to 138 | O=C(/C=C/c1ccc(O)cc1)CC(=O)/C=C/c1ccc(N2CCN(Cc3ccccc3)CC2)nc1 [CU332, (1E,6E)-1-[6-(4-benzylpiperazin-1-yl)pyridin-3-yl]-7-(4-hydroxyphenyl)hepta-1,6-diene-3,5-dione] |
| 167 to 172 | Cc1ccc(Oc2ccc(/C=C/C(=O)CC(=O)/C=C/c3ccc(O)cc3)cn2)cc1 [CU333, (1E,6E)-1-(4-hydroxyphenyl)-7-[6-(4-methylphenoxy)pyridin-3-yl]hepta-1,6-diene-3,5-dione] |
| 159 to 165 | O=C(/C=C/c1ccc(O)cc1)CC(=O)/C=C/c1cccnc1N1CCOCC1 [CU337, (1E,6E)-1-(4-hydroxyphenyl)-7-(2-morpholinopyridin-3-yl)hepta-1,6-diene-3,5-dione] |
| 144 to 150 | Cc1ccc(-n2cccc2/C=C/C(=O)CC(=O)/C=C/c2ccc(O)cc2)cc1 [CU338, (1E,6E)-1-(4-hydroxyphenyl)-7-[1-(4-methylphenyl)-1H-pyrrol-2-yl]hepta-1,6-diene-3,5-dione] |
| 180 to 185 | Cc1ccc(Oc2ncccc2/C=C/C(=O)CC(=O)/C=C/c2ccc(O)cc2)cc1 [CU340, (1E,6E)-1-(4-hydroxyphenyl)-7-[2-(4-methylphenoxy)pyridin-3-yl]hepta-1,6-diene-3,5-dione] |
| 211 to 216 | O=C(/C=C/c1ccc(O)cc1)CC(=O)/C=C/c1ccc2[nH]nnc2c1 [CU346, (1E,6E)-1-(1H-benzotriazol-5-yl)-7-(4-hydroxyphenyl)hepta-1,6-diene-3,5-dione] |
| 251 to 255 | O=C(/C=C/c1ccc(O)cc1)CC(=O)/C=C/c1ccc2nccnc2c1 [CU348, (1E,6E)-1-(4-hydroxyphenyl)-7-(quinoxalin-6-yl)hepta-1,6-diene-3,5-dione] |
| 148 to 152 | O=C(/C=C/c1ccc(O)cc1)CC(=O)/C=C/c1ccc2[nH]ncc2c1 [CU349, (1E,6E)-1-(4-hydroxyphenyl)-7-(1H-indazol-5-yl)hepta-1,6-diene-3,5-dione] |
| 184 to 187 | O=C(/C=C/c1ccc2c(c1)OCCO2)CC(=O)/C=C/c1ccc2c(c1)OCCO2 [CU356, (1E,6E)-1,7-bis(1,4-benzodioxan-6-yl)hepta-1,6-diene-3,5-dione] |
| 147 to 151 | COc1cc(O)cc(/C=C/C(=O)CC(=O)/C=C/c2cc(O)cc(OC)c2)c1 [CU358, (1E,6E)-1,7-bis(3-hydroxy-5-methoxyphenyl)hepta-1,6-diene-3,5-dione] |
| 248 to 254 | O=C(/C=C/c1ccc(O)cc1Cl)CC(=O)/C=C/c1ccc(O)cc1Cl [CU362, (1E,6E)-1,7-bis(2-chloro-4-hydroxyphenyl)hepta-1,6-diene-3,5-dione] |
| 62 to 65 | COc1c(O)cccc1/C=C/C(=O)CC(=O)/C=C/c1cccc(O)c1OC [CU363, (1E,6E)-1,7-bis(3-hydroxy-2-methoxyphenyl)hepta-1,6-diene-3,5-dione] |
| 192 to 195 | O=C(/C=C/c1cccnc1N1CCOCC1)CC(=O)/C=C/c1cccnc1N1CCOCC1 [CU366, (1E,6E)-1,7-bis(2-morpholinopyridin-3-yl)hepta-1,6-diene-3,5-dione] |
| 193 to 196 | O=C(/C=C/c1ccc(Oc2ccccc2)cc1)CC(=O)/C=C/c1ccc(Oc2ccccc2)cc1 [CU370, (1E,6E)-1,7-bis(4-phenoxyphenyl)hepta-1,6-diene-3,5-dione] |
| 185 to 190 | Cc1ccc(Oc2ccc(/C=C/C(=O)CC(=O)/C=C/c3ccc(Oc4ccc(C)cc4)nc3)cn2)cc1 [CU378, (1E,6E)-1,7-bis[6-(4-methylphenoxy)pyridin-3-yl]hepta-1,6-diene-3,5-dione] |
| 188 to 196 | COc1ccc(O)cc1/C=C/C(=O)CC(=O)/C=C/c1cc(O)ccc1OC [CU380, (1E,6E)-1,7-bis(5-hydroxy-2-methoxyphenyl)hepta-1,6-diene-3,5-dione] |
| 263 to 266 | O=C(/C=C/c1ccc2[nH]ccc2c1)CC(=O)/C=C/c1ccc2[nH]ccc2c1 [CU382, (1E,6E)-1,7-bis(1H-indol-5-yl)hepta-1,6-diene-3,5-dione] |
| 170 to 174 | O=C(/C=C/c1cccc2ncccc12)CC(=O)/C=C/c1cccc2ncccc12 [CU384, (1E,6E)-1,7-bis(quinolin-5-yl)hepta-1,6-diene-3,5-dione] |
| 150 to 155 | O=C(/C=C/c1cccnc1N1CCN(Cc2ccccc2)CC1)CC(=O)/C=C/c1cccnc1N1CCN(Cc2ccccc2)CC1 [CU385, (1E,6E)-1,7-bis[2-(4-benzylpiperazin-1-yl)pyridin-3-yl]hepta-1,6-diene-3,5-dione] |
| 212 to 217 | CN1CCN(c2ccc(/C=C/C(=O)CC(=O)/C=C/c3ccc(N4CCN(C)CC4)cc3)cc2)CC1 [CU386, (1E,6E)-1,7-bis[4-(4-methylpiperazin-1-yl)phenyl]hepta-1,6-diene-3,5-dione] |
| 203 to 208 | O=C(/C=C/c1ccc(O)c(Cl)c1)CC(=O)/C=C/c1ccc(O)c(Cl)c1 [CU387, (1E,6E)-1,7-bis(3-chloro-4-hydroxyphenyl)hepta-1,6-diene-3,5-dione] |
| 151 to 155 | Cc1ccc(-n2cccc2/C=C/C(=O)CC(=O)/C=C/c2cccn2-c2ccc(C)cc2)cc1 [CU389, (1E,6E)-1,7-bis[1-(4-methylphenyl)-1H-pyrrol-2-yl]hepta-1,6-diene-3,5-dione] |
